Data reported in PubChem BioAssay (NCI).
Where “and” joins values, the source holds several entries; their conditions need not be identical. Identical values can stand only once.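 All cell lines were grown in 96-well plates and treated with compound for 48 hours. GI50: concentration for 50% inhibition of growth. TGI denotes the concentration required for complete inhibition of growth.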 *1 amine or outer side, *2 acyl side, *3 side chain or, on linkers, in order; H or OH if unused. Where a SMILES comes first, the peptide text is derived from it. Bridges are numbered along the chain shown (N, C = ends). [ ]: non-standard residue; d: D form. The star is where a group is joined. ξ: configuration not given here. Phe(3,5-F2) = N[C@@H](Cc1cc(F)cc(F)c1)C(=O)O; ξThr(3S) = C[C@H](O[*:3])C(N[*:1])C(=O)[*:2]; Pro(4R-Me) = C[C@H]1CN[C@H](C(=O)O)C1; Pip = O=C(O)[C@@H]1CCCCN1; X1 = Cc1ccc(N*)c(F)c1; CO = O=C([*:1])[*:2]

Legend:
Experiment in all cases: NCI-60 cell line screen, 48 h
[1] = tested on: T-47D breast
[2] = tested on: KM12 colon
[3] = tested on: OVCAR-4 ovarian
[4] = tested on: OVCAR-5 ovarian
[5] = tested on: NCI-H226 lung
[6] = tested on: PC-3 prostate
[7] = tested on: SK-MEL-2 melanoma
[8] = tested on: DU-145 prostate
[9] = tested on: SK-OV-3 ovarian
[10] = tested on: HCT-116 colon
[11] = tested on: HCT-15 colon
[12] = tested on: SF-295 CNS
[13] = tested on: SNB-75 CNS
[14] = tested on: CCRF-CEM leukemia
[15] = tested on: NCI-H522 lung
[16] = tested on: NCI/ADR-RES ovarian
[17] = tested on: TK-10 renal
[18] = tested on: LOX IMVI melanoma
[19] = tested on: SK-MEL-5 melanoma
[20] = tested on: MDA-MB-231 breast
[21] = tested on: UO-31 renal
[22] = tested on: OVCAR-8 ovarian
[23] = tested on: MOLT-4 leukemia
[24] = tested on: IGROV1 ovarian
[25] = tested on: RXF 393 renal
[26] = tested on: SNB-19 CNS
[27] = tested on: 786-0 renal
[28] = tested on: NCI-H460 lung
[29] = tested on: A498 renal
[30] = tested on: OVCAR-3 ovarian
[31] = tested on: SF-539 CNS
[32] = tested on: SW-620 colon
[33] = tested on: RPMI-8226 leukemia
[34] = tested on: HCC-2998 colon
[35] = tested on: CAKI-1 renal
[36] = tested on: SR leukemia
[37] = tested on: SN12C renal
[38] = tested on: M14 melanoma
[39] = tested on: A549 NSCLC
[40] = tested on: BT-549 breast
[41] = tested on: ACHN renal
[42] = tested on: SF-268 CNS
[43] = tested on: MCF7 breast
[44] = tested on: K-562 leukemia
[45] = tested on: HOP-62 NSCLC
[46] = tested on: COLO 205 colon
[47] = tested on: U251 CNS
[48] = tested on: MDA-MB-435
[49] = tested on: HL-60(TB) leukemia
[50] = tested on: UACC-62 melanoma
[51] = tested on: MALME-3M melanoma
[52] = tested on: NCI-H23 lung
[53] = tested on: HOP-92 NSCLC
[54] = tested on: UACC-257 melanoma
[55] = tested on: HS 578T breast
[56] = tested on: EKVX NSCLC
[57] = tested on: HT29 colon
[58] = tested on: SK-MEL-28 melanoma

In the case of `Cc1ccc(NC(=O)N[C@@H](Cc2cc(F)cc(F)c2)C(=O)NC2C(=O)N3CCC[C@H]3C(=O)N3CCCC[C@H]3C(=O)N[C@@H](C)C(=O)N3C[C@H](C)C[C@H]3C(=O)O[C@H]2C)c(F)c1` (stereo partly drawn) ({X1-CO}-[Phe(3,5-F2)][ξThr(3S)]P[Pip]A[Pro(4R-Me)]; ester 2-C), the GI50 [1] is reported as 222 nM and 314 nM, the TGI [1] is reported as 50 µM and 18 µM and the GI50 [2] is reported as 533 nM and 384 nM. The TGI [2] was 23.5 µM and 24.3 µM, the GI50 [3] was 268 nM and 98.9 nM and the TGI [3] was 50 µM and > 100 µM. The GI50 [4] was 275 nM and 506 nM, the TGI [4] was 9.74 µM and 16 µM and the GI50 [5] was 272 nM and 368 nM. The TGI [5] was 40.5 µM and 7.75 µM, the GI50 [6] was 181 nM and 111 nM and the TGI [6] was 50 µM and > 100 µM. For the same compound, the GI50 [7] was 198 nM and 164 nM, the TGI [7] was 7.58 µM and 0.921 µM and the GI50 [8] was 349 nM and 147 nM. The TGI [8] was 50 µM and > 100 µM, the GI50 [9] was 225 nM and 360 nM and the TGI [9] was 17.4 µM and 7.04 µM. For the same compound, the GI50 [10] was 266 nM and 65.3 nM, the TGI [10] was 7.47 µM and 11.1 µM and the GI50 [11] was 231 nM and 357 nM. The TGI [11] was 10 µM and 14.9 µM, the GI50 [12] was 200 nM and 240 nM and the TGI [12] was 11.5 µM and 3.58 µM. The GI50 [13] was 289 nM, the TGI [13] was 50 µM and the GI50 [14] was 236 nM and 127 nM. For the same compound, the TGI [14] was 50 µM and 30.1 µM, the GI50 [15] was 211 nM and 119 nM and the TGI [15] was 8.5 µM and 10.7 µM. For the same compound, the GI50 [16] was 1730 nM and 1700 nM, the TGI [16] was 50 µM and > 100 µM and the GI50 [17] was 385 nM and 791 nM. For the same compound, the TGI [17] was 50 µM and 42.7 µM, the GI50 [18] was 131 nM and 425 nM and the TGI [18] was 6.95 µM and 24.4 µM. For the same compound, the GI50 [19] was 199 nM and 397 nM, the TGI [19] was 7.29 µM and 7.9 µM and the GI50 [20] was 166 nM and 279 nM. The TGI [20] was 1.84 µM and 12.8 µM, the GI50 [21] was 585 nM and 456 nM and the TGI [21] was 50 µM and > 100 µM. For the same compound, the GI50 [22] was 194 nM and 64.6 nM, the TGI [22] was 50 µM and > 100 µM and the GI50 [23] was 545 nM and 669 nM. For the same compound, the TGI [23] was 25.8 µM and 22.9 µM, the GI50 [24] was 2470 nM and 828 nM and the TGI [24] was 40.4 µM and > 100 µM. For the same compound, the GI50 [25] was 2870 nM and 778 nM, the TGI [25] was 17.5 µM and 9.16 µM and the GI50 [26] was 208 nM and 187 nM. The TGI [26] was 50 µM and > 100 µM, the GI50 [27] was 422 nM and 633 nM and the TGI [27] was 50 µM and > 100 µM. The GI50 [28] was 220 nM and 222 nM, the TGI [28] was 50 µM and 21 µM and the GI50 [29] was 5.14 µM and 0.95 µM. The TGI [29] was 41.2 µM and 10.2 µM, the GI50 [30] was 360 nM and 312 nM and the TGI [30] was 44.9 µM and 13.2 µM. For the same compound, the GI50 [31] was 696 nM and 709 nM, the TGI [31] was 11.1 µM and 16.9 µM and the GI50 [32] was 433 nM and 483 nM. For the same compound, the TGI [32] was 50 µM and > 100 µM, the GI50 [33] was 119 nM and 38 nM and the TGI [33] was 6.25 µM and 1.3 µM. For the same compound, the GI50 [34] was 255 nM and 390 nM, the TGI [34] was 9.17 µM and 10.8 µM and the GI50 [35] was 210 nM and 288 nM. For the same compound, the TGI [35] was 50 µM and > 100 µM, the GI50 [36] was 334 nM and 626 nM and the TGI [36] was 12.1 µM and 21.6 µM. The GI50 [37] was 171 nM and 303 nM, the TGI [37] was 50 µM and > 100 µM and the GI50 [38] was 297 nM and 245 nM. For the same compound, the TGI [38] was 9.86 µM and 16.4 µM, the GI50 [39] was 223 nM and 640 nM and the TGI [39] was 50 µM and > 100 µM. For the same compound, the GI50 [40] was 283 nM and 260 nM, the TGI [40] was 12 µM and 11.8 µM and the GI50 [41] was 321 nM and 528 nM. For the same compound, the TGI [41] was 50 µM and > 100 µM, the GI50 [42] was 393 nM and 446 nM and the TGI [42] was 50 µM and 48.6 µM. The GI50 [43] was 206 nM and 195 nM, the TGI [43] was 50 µM and 53.5 µM and the GI50 [44] was 134 nM and 43.7 nM. For the same compound, the TGI [44] was 50 µM and > 100 µM, the GI50 [45] was 235 nM and 322 nM and the TGI [45] was 50 µM and 46.3 µM. For the same compound, the GI50 [46] was 124 nM and 156 nM, the TGI [46] was 338 nM and 496 nM and the GI50 [47] was 210 nM and 336 nM. The TGI [47] was 50 µM and > 100 µM, the GI50 [48] was 230 nM and 117 nM and the TGI [48] was 12.3 µM and 14.6 µM. For the same compound, the GI50 [49] was 213 nM and 47.4 nM, the TGI [49] was 8.61 µM and 2.05 µM and the GI50 [50] was 247 nM and 451 nM. The TGI [50] was 10.7 µM and 19.3 µM, the GI50 [51] was 410 nM and 561 nM and the TGI [51] was 17.1 µM and 19.1 µM. The GI50 [52] was 228 nM, the TGI [52] was 39.4 µM and the GI50 [53] was 163 nM and 251 nM. For the same compound, the TGI [53] was 9.01 µM and 3.05 µM, the GI50 [54] was 191 nM and 316 nM and the TGI [54] was 7.58 µM and 7.52 µM. For the same compound, the GI50 [55] was 394 nM, the TGI [55] was 50 µM and 8.56 µM and the GI50 [56] was 252 nM and 377 nM. For the same compound, the TGI [56] was 50 µM and > 100 µM, the GI50 [57] was 276 nM and 302 nM and the TGI [57] was 10.2 µM and 10.1 µM. The GI50 [58] was 467 nM and 709 nM and the TGI [58] was 13.8 µM and 18.4 µM.
